According to ChEMBL document CHEMBL1150610, “Diterpenoids from Isodon adenantha” (J Nat Prod, 2002):
≈ marks a conversion by molar mass, not a printed value.

System: K562
Experiment: Cytotoxicity against human K562 cells
Type: functional, cell-based

C=C1C(=O)[C@]23C[C@H]1C[C@H](OC(C)=O)[C@H]2[C@]1(C)[C@@H](OC(C)=O)C[C@H](O)C(C)(C)[C@H]1C[C@@H]3OC(C)=O [ADENANTHIN C]
IC50: 3.3 µg/mL (≈ 6.92 µM)

C=C1C(=O)[C@]23C[C@H]1C[C@H](O)[C@H]2[C@@]1(C)[C@H](C[C@@H]3OC(C)=O)C(C)(C)[C@@H](OC(C)=O)C[C@@H]1O [ADENANTHIN F]
IC50: 3.6 µg/mL (≈ 8.28 µM)

C=C1C(=O)[C@]23C[C@H]1C[C@H](OC(C)=O)[C@H]2[C@]1(C)[C@@H](OC(C)=O)C[C@H](O)C(C)(C)[C@H]1[C@@H](O)[C@@H]3OC(C)=O [WEISIENSIN A]
IC50: 3.3 µg/mL (≈ 6.7 µM)
